Experimental data as given in patent publication US5654320A, “Indazolecarboxamides” (Eli Lilly and Company, priority 1995, dated 1997).
Structures can show the parent of a compound that is named as a salt. Where two headings read alike, the source gives them in different places.

Experiments:
5-HT4 receptor [1] = target: T1, 5-HT4 receptor (Rattus norvegicus, UniProt Q62758); assay: 5-HT4 receptor antagonism in carbamylcholine-contracted isolated esophagus smooth muscle (antagonism of serotonin-induced relaxation); parameters: species or system male Wistar rats
T1 construct: esophagus smooth muscle, freshly removed from male Wistar rats; from tissue; host or cells: esophagus smooth muscle of male Wistar rats
T1 sequence (Q62758 whole entry): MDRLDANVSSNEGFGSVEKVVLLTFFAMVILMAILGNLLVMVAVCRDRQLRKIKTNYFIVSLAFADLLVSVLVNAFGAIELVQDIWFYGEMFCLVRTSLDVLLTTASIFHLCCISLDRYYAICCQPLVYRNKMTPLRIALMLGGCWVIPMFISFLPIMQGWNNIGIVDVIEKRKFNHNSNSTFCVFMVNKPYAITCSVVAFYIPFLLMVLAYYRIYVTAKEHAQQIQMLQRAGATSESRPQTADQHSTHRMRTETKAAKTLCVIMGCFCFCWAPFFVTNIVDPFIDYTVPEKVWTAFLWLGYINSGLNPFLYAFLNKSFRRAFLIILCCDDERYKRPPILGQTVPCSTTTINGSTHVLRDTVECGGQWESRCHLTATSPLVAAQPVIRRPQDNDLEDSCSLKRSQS
Procedure: The test was carried out in esophagus smooth muscle, freshly removed from male Wistar rats weighing 250-300 g each. The rats were killed by cervical dislocation, and the esophagus was removed and dissected free of connective tissue. The esophagi were used as longitudinal preparations--obtaining two preparations from each animal. The tissues were tied with thread at each end with the lower end being tied to a stationary glass rod and the upper end to a force transducer.
Tissues were mounted in organ baths containing 10 mL of modified Krebs' solution of the following composition (millimolar) NaCl 118.2; KCl 4.6; CaCl2.2H2 O 1.6; KH2 PO4 1.2; MgSO4 1.2; dextrose 10.0; and NaHCO3 24.8. Tissue bath solutions were maintained at 37° C. and aerated with 95% O2 -5% CO2. Tissues were placed under optimum resting force, 1 g, and were allowed to equilibrate for 1 hr before exposure to drugs. Isometric contractions were recorded as changes in grams of force on the Modular Instruments Inc. (Malvern, Pa.) model M4000 data acquisition system with Sensotec (Columbus, Ohio) model MBL 5514-02 transducers.
For studies with partial agonists or antagonists, tissues were preincubated with vehicle or antagonist for 45 min. All drugs were prepared daily in deionized water and kept on ice during the course of the experiment. The tissues were contracted by incubation with 10^-7 -10^-5 M carbamylcholine, and were relaxed by the addition of serotonin at 10^-8 -10^-10 M, which treatment relaxed the tissue and reduced the contraction caused by carbamylcholine. Addition of a compound of the present invention antagonized the serotonin response and reduced the observed relaxations of the tissue. Repeated tests of each compound at various concentrations were carried out, and the concentration that caused a two-fold shift of the relaxation curve was calculated. That concentration is reported here as the negative logarithm. In each case, the SEM of the data has been calculated and is shown below, as is the number of experiments carried out with each compound.

5-HT4 receptor [2] = details: presently known compound; cited from earlier work

SMILES | Kb (5-HT4 receptor [1]) [nM] | also measured
O=C(NCCN1CCCCC1)c1n[nH]c2ccccc12 [Example 1, N-[2-(1-piperidinyl)ethyl]-1H-indazole-3-carboxamide hydrochloride] | – | Kb (5-HT4 receptor [1]; negative logarithm of concentration that caused a two-fold shift of the serotonin relaxation curve, rat esophagus, 45 min preincubation, ± SEM (number of experiments), read-out: -Log KB (converted)): 31.6 nM
CC(C)n1nc(C(=O)NCCN2CCCCC2)c2ccccc21 [Example 2, N-[2-(1-piperidinyl)ethyl]-1-(2-propyl)-1H-indazole-3-carboxamide hydrochloride] | 10 | –
CC(C)n1nc(C(=O)NCCCN2CCCCC2)c2ccccc21 [Example 4, N-[3-(1-piperidinyl)propyl]-1-(2-propyl)-1H-indazole-3-carboxamide hydrochloride] | 7.94 | –
CC(C)n1nc(C(=O)NCCCCN2CCCCC2)c2ccccc21 [Example 6, N-[4-(1-piperidinyl)butyl]-1-(2-propyl)-1H-indazole-3-carboxamide oxalate] | 6.31 | –
CC(C)n1nc(C(=O)NCCN2CCC(NC(=O)OCc3ccccc3)CC2)c2ccccc21 [Example 8, N-[2-(4-benzyloxycarbonylamino-1-piperidinyl)ethyl]-1-(2-propyl)-1H-indazole-3-carboxamide oxalate] | 1.58 | –
CC(C)n1nc(C(=O)NCCN2CCCC2)c2ccccc21 [Example 10, N-[2-(1-pyrrolidinyl)ethyl]-1-(2-propyl)-1H-indazole-3-carboxamide hydrochloride] | 20 | –
CC(C)n1nc(C(=O)NCCN2CCCCCC2)c2ccccc21 [Example 12, N-[2-(1-hexamethyleneiminyl)ethyl]-1-(2-propyl)-1H-indazole-3-carboxamide hydrochloride] | 10 | –
CC(C)n1nc(C(=O)NCCN2CCOCC2)c2ccccc21 [Example 14, N-[2-(4-morpholinyl)ethyl]-1-(2-propyl)-1H-indazole-3-carboxamide hydrochloride] | 25.1 | –
CC(C)n1nc(C(=O)NCCN2CCN(Cc3ccccc3)CC2)c2ccccc21 [Example 16, N-[2-(4-benzyl-1-piperazinyl)ethyl]-1-(2-propyl)-1H-indazole-3-carboxamidedihydrochloride] | 10 | –
CC(C)n1nc(C(=O)NCCN2CCN(C(=O)c3ccccc3)CC2)c2ccccc21 [Example 18, N-[2-(4-benzoyl-1-piperazinyl)ethyl]-1-(2-propyl)-1H-indazole-3-carboxamide oxalate] | 31.6 | –
CC(C)n1nc(C(=O)NCCN2CCC(Cc3ccccc3)CC2)c2ccccc21 [Example 20, N-[2-(4-benzyl-1-piperidinyl)ethyl]-1-(2-propyl)-1H-indazole-3-carboxamideoxalate] | 50.1 | –
CC(C)n1nc(C(=O)NCCN2CCc3ccccc3C2)c2ccccc21 [Example 22, N-[2-(1,2,3,4-tetrahydro-2-isoquinolinyl)ethyl]-1-(2-propyl)-1H-indazole-3-carboxamide oxalate] | 10 | –
CC(C)n1nc(C(=O)NCCN2CCC(N)CC2)c2ccccc21 [Example 23, N-[2-(4-amino-1-piperidinyl)ethyl]-1-(2-propyl)-1H-indazole-3-carboxamide dioxalate] | 158 | –
CC(C)n1nc(C(=O)NCCN2CCC(NS(C)(=O)=O)CC2)c2ccccc21 [Example 24, N-[2-(4-methylsulfonylamino-1-piperidinyl)ethyl]-1-(2-propyl)-1H-indazole-3-carboxamide oxalate] | 12.6 | –
CC(C)n1nc(C(=O)NCCN2CCC(NC(=O)c3ccccc3)CC2)c2ccccc21 [Example 25, N-[2-(4-benzoylamino-1-piperidinyl)ethyl]-1-(2-propyl)-1H-indazole-3-carboxamide oxalate] | 2.51 | –
CC(C)n1nc(C(=O)NCCN2CCC(NC(=O)Cc3ccccc3)CC2)c2ccccc21 [Example 26, N-[2-(4-benzylcarbonylamino-1-piperidinyl)ethyl]-1-(2-propyl)-1H-indazole-3-carboxamide oxalate] | 3.98 | –
CC(C)n1nc(C(=O)NCCN2CCC(NC(=O)C34CC5CC(CC(C5)C3)C4)CC2)c2ccccc21 [Example 27, N-[2-(4-(1-adamantylcarbonylamino)-1-piperidinyl)ethyl]-1-(2-propyl)-1H-indazole-3-carboxamide oxalate] | 0.126 | –
CC(=O)NC1CCN(CCNC(=O)c2nn(C(C)C)c3ccccc23)CC1 [Example 28, N-[2-(4-acetylamino-1-piperidinyl)ethyl]-1-(2-propyl)-1H-indazole-3-carboxamide oxalate] | 5.01 | –
CCC(=O)NC1CCN(CCNC(=O)c2nn(C(C)C)c3ccccc23)CC1 [Example 29, N-[2-(4-propionylamino-1-piperidinyl)ethyl]-1-(2-propyl)-1H-indazole-3-carboxamide oxalate] | 3.16 | –
CCCC(=O)NC1CCN(CCNC(=O)c2nn(C(C)C)c3ccccc23)CC1 [Example 30, N-[2-(4-butyrylamino-1-piperidinyl)ethyl]-1-(2-propyl)-1H-indazole-3-carboxamide oxalate] | 15.8 | –
CCCCC(=O)NC1CCN(CCNC(=O)c2nn(C(C)C)c3ccccc23)CC1 [Example 31, N-[2-(4-valerylamino-1-piperidinyl)ethyl]-1-(2-propyl)-1H-indazole-3-carboxamide] | 20 | –
CC(C)C(=O)NC1CCN(CCNC(=O)c2nn(C(C)C)c3ccccc23)CC1 [Example 32, N-[2-(4-isobutyrylamino-1-piperidinyl)ethyl]-1-(2-propyl)-1H-indazole-3-carboxamide oxalate] | 2.51 | –
CC(C)n1nc(C(=O)NCCN2CCC(NC(=O)C(C)(C)C)CC2)c2ccccc21 [Example 33, N-[2-(4-trimethylacetylamino-1-piperidinyl)ethyl]-1-(2-propyl)-1H-indazole-3-carboxamide oxalate] | 3.16 | –
CC(C)n1nc(C(=O)NCCN2CCC(NC(=O)NCc3ccccc3)CC2)c2ccccc21 [Example 34, N-[2-(4-benzylaminocarbonylamino)-1-piperidinyl)ethyl]-1-(2-propyl)-1H-indazole-3-carboxamide oxalate] | 5.01 | –
CC(C)n1nc(C(=O)NCCN2CCC(NC(=O)Nc3ccccc3)CC2)c2ccccc21 [Example 35, N-[2-(4-phenylaminocarbonylamino)-1-piperidinyl)ethyl]-1-(2-propyl)-1H-indazole-3-carboxamide oxalate] | 10 | –
CC(C)n1nc(C(=O)NCCN2CCC(NC(=O)Nc3ccc(F)cc3)CC2)c2ccccc21 [Example 36, N-[2-(4-(4-fluorophenylaminocarbonylamino)-1-piperidinyl)ethyl]-1-(2-propyl)-1H-indazole-3-carboxamide oxalate] | 25.1 | –
CC(C)n1nc(C(=O)NCCN2CCC(NC(=O)C34CC5CC(CC(O)(C5)C3)C4)CC2)c2ccccc21 [Example 37, N-[2-(4-(3-hydroxy-1-adamantylcarbonylamino)-1-piperidinyl)ethyl]-1-(2-propyl)-1H-indazole-3-carboxamide oxalate] | 1.26 | –
CC(C)n1nc(C(=O)NCCN2CCC(NC(=O)C34CC5CC(C3)C(O)C(C5)C4)CC2)c2ccccc21 (centres unmarked) [Example 38, N-[2-(4-(4-hydroxy-1-adamantylcarbonylamino)-1-piperidinyl)ethyl]-1-(2-propyl)-1H-indazole-3-carboxamide oxalate] | 2 | –
COc1cc(N)c(Cl)cc1C(=O)NC1CCN(CCCOc2ccc(F)cc2)CC1OC (centres unmarked) [cisapride] | – | affinity at the 5-HT4 receptor (5-HT4 receptor [2]): high affinity
